Measured values taken from patent US10392422B2, “Macrocyclic broad spectrum antibiotics” (priority 2014, dated 2019).
Converted amounts (≈) assume the structure as drawn. Like-named read-outs stand apart in the source and are kept apart here.

How the values were obtained:
Assay in all cases: MIC, broth micro-dilution technique (CLSI)
[1] = tested on: Escherichia coli MC4100 harboring the IMP4213; type: cell-based; conditions: 35° C., 22 hours; for MIC: Escherichia coli, 22 h; for MIC (μg/mL) E. coli: Table 2 modified protocol: serial 2-fold dilutions starting from 4 μg/mL
How it was run: (§1)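 Cation-adjusted MHB + 0.002% Tween-80; 10-point 2-fold series starting 64 μg/ml (modified protocol: 4 μg/mL). Final inoculum OD600 0.0005; 35° C, 22 h. MIC per CLSI M07-A8 broth microdilution.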

[2] = tested on: Methicillin Resistant Staphylococcus aureus strain USA 300 (NRS384); type: cell-based; conditions: for MIC: Staphylococcus aureus, 22 h, read-out: MIC (μg/mL) S. aureus
How it was run: as §1

[3] = tested on: MRSA COL (NRS100); type: cell-based, Staphylococcus aureus; conditions: for MIC: Staphylococcus aureus, 22 h, read-out: MIC (μg/mL) (COL)
How it was run: as §1

[4] = read-out: MIC (μg/mL) E. coli, Table 1 protocol: serial 2-fold dilutions starting from 64 μg/ml
[5] = Table 1 protocol: serial 2-fold dilutions starting from 64 μg/ml, 35° C., 22 hours
[6] = read-out: MIC (μg/mL) E. coli, Table 2 modified protocol: serial 2-fold dilutions starting from 4 μg/mL
[7] = Table 2 modified protocol: serial 2-fold dilutions starting from 4 μg/mL, 35° C., 22 hours

C[C@@H]1NC(=O)[C@@H](N(C)C(=O)[C@H](CCCCN)NC(=O)c2ccc(-c3ccc(Cl)cc3)cc2)c2ccc(O)c(c2)-c2cc(ccc2O)C[C@@H](C(=O)NC/C=C/S(C)(=O)=O)NC1=O [Compound 236]
MIC [1, 4]: > 64 µg/mL | MIC [2]: 48 µg/mL (≈ 55 µM) | MIC [3]: 8 µg/mL (≈ 9.16 µM)

Cc1nc(C(=O)[C@H](C)NC(=O)[C@@H]2Cc3ccc(O)c(c3)-c3cc(ccc3O)[C@H](N(C)C(=O)[C@H](CCCCN)NC(=O)c3ccc(-c4ccc(Cl)cc4)cc3)C(=O)N[C@@H](C)C(=O)N2)no1 [Compound 237]
MIC [1, 4]: 8 µg/mL (≈ 8.95 µM) | MIC [2, 5]: 12 µg/mL (≈ 13.4 µM) | MIC [3, 5]: 4 µg/mL (≈ 4.48 µM)

CNC(=O)C(=O)CNC(=O)[C@@H]1Cc2ccc(O)c(c2)-c2cc(ccc2O)[C@H](N(C)C(=O)[C@H](CCCCN)NC(=O)c2ccc(-c3ccc(Cl)cc3)cc2)C(=O)N[C@@H](C)C(=O)N1 [Compound 238]
MIC [1, 4]: 64 µg/mL (≈ 74.9 µM) | MIC [2, 5]: 32 µg/mL (≈ 37.5 µM) | MIC [3, 5]: 8 µg/mL (≈ 9.36 µM)

C[C@@H]1NC(=O)[C@@H](N(C)C(=O)[C@H](CCCCN)NC(=O)c2ccc(-c3ccc(Cl)cc3)cc2)c2ccc(O)c(c2)-c2cc(ccc2O)C[C@@H](C(=O)NCC(=O)C(=O)O)NC1=O [Compound 239]
MIC [1, 4]: > 4 µg/mL | MIC [2, 5]: > 4 µg/mL | MIC [3, 5]: 4 µg/mL (≈ 4.75 µM)

C[C@H](NC(=O)[C@@H]1Cc2ccc(O)c(c2)-c2cc(ccc2O)[C@H](N(C)C(=O)[C@H](CCCCN)NC(=O)c2ccc(-c3ccc(Cl)cc3)cc2)C(=O)N[C@@H](C)C(=O)N1)C(=O)CNC=O [Compound 240]
MIC [1, 4]: 48 µg/mL (≈ 55.3 µM) | MIC [2, 5]: 4 µg/mL (≈ 4.61 µM) | MIC [3, 5]: 2 µg/mL (≈ 2.3 µM)

C[C@H](NC(=O)[C@@H]1Cc2ccc(O)c(c2)-c2cc(ccc2O)[C@H](N(C)C(=O)[C@H](CCCCN)NC(=O)c2ccc(-c3ccc(Cl)cc3)cc2)C(=O)N[C@@H](C)C(=O)N1)C(=O)Cn1ccnn1 [Compound 241]
MIC [1, 4]: 16 µg/mL (≈ 17.9 µM) | MIC [2, 5]: 4 µg/mL (≈ 4.48 µM) | MIC [3, 5]: 1.5 µg/mL (≈ 1.68 µM)

C[C@@H]1NC(=O)[C@@H](N(C)C(=O)[C@H](CCCCN)NC(=O)c2ccc(-c3ccc(Cl)cc3)cc2)c2ccc(O)c(c2)-c2cc(ccc2O)C[C@@H](C(=O)N[C@@H](C)C(=O)C(=O)Nc2cn[nH]c2)NC1=O [Compound 242]
MIC [1, 6]: > 4 µg/mL | MIC [2, 7]: > 4 µg/mL | MIC [3, 7]: 4 µg/mL (≈ 4.35 µM)

C[C@@H]1NC(=O)[C@@H](N(C)C(=O)[C@H](CCCCN)NC(=O)c2ccc(-c3ccc(Cl)cc3)cc2)c2ccc(O)c(c2)-c2cc(ccc2O)C[C@@H](C(=O)N[C@@H](C)C(=O)N(CCO)CC(N)=O)NC1=O [Compound 243]
MIC [1, 6]: > 4 µg/mL | MIC [2, 7]: > 4 µg/mL | MIC [3, 7]: > 4 µg/mL

C[C@@H]1NC(=O)[C@@H](N(C)C(=O)[C@H](CCCCN)NC(=O)c2ccc(-c3ccc(Cl)cc3)cc2)c2ccc(O)c(c2)-c2cc(ccc2O)C[C@@H](C(=O)NCC(=O)c2nnn[nH]2)NC1=O [Compound 244]
MIC [1, 6]: > 4 µg/mL | MIC [2, 7]: > 4 µg/mL | MIC [3, 7]: 4 µg/mL (≈ 4.62 µM)

C[C@@H]1NC(=O)[C@@H](N(C)C(=O)[C@H](CCCCN)NC(=O)c2ccc(-c3ccc(Cl)cc3)cc2)c2ccc(O)c(c2)-c2cc(ccc2O)C[C@@H](C(=O)NCC(=O)c2ncc[nH]2)NC1=O [Compound 245]
MIC [1, 6]: > 4 µg/mL | MIC [2, 7]: 4 µg/mL (≈ 4.63 µM) | MIC [3, 7]: 2 µg/mL (≈ 2.32 µM)

CC(NC(=O)[C@@H]1Cc2ccc(O)c(c2)-c2cc(ccc2O)[C@H](N(C)C(=O)[C@H](CCCCN)NC(=O)c2ccc(-c3ccc(Cl)cc3)cc2)C(=O)N[C@@H](C)C(=O)N1)C(=O)Cn1cc(C(N)=O)nn1 (stereo partly drawn) [Compound 246]
MIC [1, 6]: > 4 µg/mL | MIC [2, 7]: 4 µg/mL (≈ 4.28 µM) | MIC [3, 7]: 3 µg/mL (≈ 3.21 µM)

C[C@H](NC(=O)[C@@H]1Cc2ccc(O)c(c2)-c2cc(ccc2O)[C@H](N(C)C(=O)[C@H](CCCCN)NC(=O)c2ccc(-c3ccc(Cl)cc3)cc2)C(=O)N[C@@H](C)C(=O)N1)C(=O)CF [Compound 247]
MIC [1, 6]: > 4 µg/mL | MIC [2, 7]: 2 µg/mL (≈ 2.37 µM) | MIC [3, 7]: 1 µg/mL (≈ 1.19 µM)

CCOS(=O)(=O)/C=C/[C@H](C)NC(=O)[C@@H]1Cc2ccc(O)c(c2)-c2cc(ccc2O)[C@H](N(C)C(=O)[C@H](CCCCN)NC(=O)c2ccc(-c3ccc(Cl)cc3)cc2)C(=O)N[C@@H](C)C(=O)N1 [Compound 248]
MIC [1, 4]: > 64 µg/mL | MIC [2]: 21 µg/mL (≈ 22.9 µM) | MIC [3]: 4 µg/mL (≈ 4.36 µM)

C[C@@H]1NC(=O)[C@@H](N(C)C(=O)[C@H](CCCCN)NC(=O)c2ccc(-c3ccc(Cl)cc3)cc2)c2ccc(O)c(c2)-c2cc(ccc2O)C[C@@H](C(=O)N[C@@H](C)/C=C/S(N)(=O)=O)NC1=O [Compound 249]
MIC [1, 4]: 48 µg/mL (≈ 54 µM) | MIC [2]: 32 µg/mL (≈ 36 µM) | MIC [3]: 16 µg/mL (≈ 18 µM)

C[C@@H]1NC(=O)[C@@H](N(C)C(=O)[C@H](CCCCN)NC(=O)c2ccc(-c3ccc(Cl)cc3)cc2)c2ccc(O)c(c2)-c2cc(ccc2O)C[C@@H](C(=O)N[C@@H](C)C(=O)c2ccccn2)NC1=O [Compound 250]
MIC [1, 4]: 64 µg/mL (≈ 72 µM) | MIC [2, 5]: 64 µg/mL (≈ 72 µM) | MIC [3, 5]: 11 µg/mL (≈ 12.4 µM)

COC(=O)/C=C/[C@H](C)NC(=O)[C@@H]1Cc2ccc(O)c(c2)-c2cc(ccc2O)[C@H](N(C)C(=O)[C@H](CCCCN)NC(=O)c2ccc(-c3ccc(Cl)cc3)cc2)C(=O)N[C@@H](C)C(=O)N1 [Compound 251]
MIC [1, 4]: > 64 µg/mL | MIC [2]: 64 µg/mL (≈ 73.8 µM) | MIC [3]: 16 µg/mL (≈ 18.4 µM)

C[C@@H]1NC(=O)[C@@H](N(C)C(=O)[C@H](CCCCN)NC(=O)c2ccc(-c3ccc(Cl)cc3)cc2)c2ccc(O)c(c2)-c2cc(ccc2O)C[C@@H](C(=O)NCC(=O)C2CO2)NC1=O (stereo partly drawn) [Compound 252]
MIC [1, 6]: > 4 µg/mL | MIC [2, 7]: > 4 µg/mL | MIC [3, 7]: > 4 µg/mL

C[C@@H]1NC(=O)[C@@H](N(C)C(=O)[C@H](CCCCN)NC(=O)c2ccc(-c3ccc(Cl)cc3)cc2)c2ccc(O)c(c2)-c2cc(ccc2O)C[C@@H](C(=O)NCC(=O)CF)NC1=O [Compound 253]
MIC [1, 6]: > 4 µg/mL | MIC [2, 7]: > 4 µg/mL | MIC [3, 7]: 4 µg/mL (≈ 4.82 µM)

CC(=O)OCC(=O)CNC(=O)[C@@H]1Cc2ccc(O)c(c2)-c2cc(ccc2O)[C@H](N(C)C(=O)[C@H](CCCCN)NC(=O)c2ccc(-c3ccc(Cl)cc3)cc2)C(=O)N[C@@H](C)C(=O)N1 [Compound 254]
MIC [1, 6]: > 4 µg/mL | MIC [2, 7]: 4 µg/mL (≈ 4.6 µM) | MIC [3, 7]: 2 µg/mL (≈ 2.3 µM)

C[C@H](NC(=O)[C@@H]1Cc2ccc(O)c(c2)-c2cc(ccc2O)[C@H](N(C)C(=O)[C@H](CCCCN)NC(=O)c2ccc(-c3ccc(Cl)cc3)cc2)C(=O)N[C@@H](C)C(=O)N1)C(=O)CN=[N+]=[N-] [Compound 255]
MIC [1, 4]: > 64 µg/mL | MIC [2]: 12 µg/mL (≈ 13.9 µM) | MIC [3]: 3 µg/mL (≈ 3.46 µM)

CCCCCCCCCCS(=O)(=O)N[C@@H](CCCCN)C(=O)N(C)[C@@H]1C(=O)N[C@@H](C)C(=O)N[C@H](C(=O)N[C@@H](C)C(C)=O)Cc2ccc(OCCN)c(c2)-c2cc1ccc2OCCN.O=CO [Compound 256]
MIC (μg/mL) E. coli [1]: >4 µg/mL | MIC (μg/mL) S. aureus [2, 7]: 0.063 µg/mL | MIC (μg/mL) (COL) [3, 7]: 0.016 µg/mL

CCCCCCCCCCS(=O)(=O)N[C@@H](CCCCN)C(=O)N(C)[C@@H]1C(=O)N[C@@H](C)C(=O)N[C@H](C(=O)N[C@@H](C)C(=O)c2nnn[nH]2)Cc2ccc(OCCN)c(c2)-c2cc1ccc2OCCN.O=CO [Compound 258]
MIC (μg/mL) E. coli [1]: 4 µg/mL | MIC (μg/mL) S. aureus [2, 7]: 0.047 µg/mL | MIC (μg/mL) (COL) [3, 7]: 0.012 µg/mL

CCCCCCCCS(=O)(=O)N[C@@H](CO)C(=O)N(C)[C@@H]1C(=O)N[C@@H](C)C(=O)N[C@H](C(=O)N[C@@H](C)C(C)=O)Cc2ccc(OCCN)c(c2)-c2cc1ccc2OCCN.O=CO [Compound 259]
MIC (μg/mL) E. coli [1]: >4 µg/mL | MIC (μg/mL) S. aureus [2, 7]: 0.75 µg/mL | MIC (μg/mL) (COL) [3, 7]: 0.38 µg/mL

CCCCCCCCCC(=O)N[C@@H](CCSC)C(=O)N(C)[C@@H]1C(=O)N[C@@H](C)C(=O)N[C@H](C(=O)N[C@@H](C)C(C)=O)Cc2ccc(OCCN)c(c2)-c2cc1ccc2OCCN.O=CO [Compound 261]
MIC (μg/mL) E. coli [1]: >4 µg/mL | MIC (μg/mL) S. aureus [2, 7]: 1.5 µg/mL | MIC (μg/mL) (COL) [3, 7]: 0.38 µg/mL

CCCCCCCCCC(=O)N[C@@H](CC[S+](C)[O-])C(=O)N(C)[C@@H]1C(=O)N[C@@H](C)C(=O)N[C@H](C(=O)N[C@@H](C)C(C)=O)Cc2ccc(OCCN)c(c2)-c2cc1ccc2OCCN (stereo partly drawn) [Compound 262]
MIC (μg/mL) E. coli [1]: >4 µg/mL | MIC (μg/mL) S. aureus [2, 7]: >4 µg/mL | MIC (μg/mL) (COL) [3, 7]: 2 µg/mL (≈ 2.3 µM)

CCCCCCCCCC(=O)N[C@@H](CO)C(=O)N(C)[C@@H]1C(=O)N[C@@H](C)C(=O)N[C@H](C(=O)N[C@@H](C)C(C)=O)Cc2ccc(OCCN)c(c2)-c2cc1ccc2OCCN.O=CO [Compound 264]
MIC (μg/mL) E. coli [1]: >4 µg/mL | MIC (μg/mL) S. aureus [2, 7]: 2 µg/mL | MIC (μg/mL) (COL) [3, 7]: 0.75 µg/mL

CCCCCCCCCC(=O)N[C@@H](CO)C(=O)N(C)[C@@H]1C(=O)N[C@@H](C)C(=O)N[C@H](C(=O)N[C@@H](C)C(=O)c2nnn[nH]2)Cc2ccc(OCCN)c(c2)-c2cc1ccc2OCCN.O=CO [Compound 265]
MIC (μg/mL) E. coli [1]: 4 µg/mL | MIC (μg/mL) S. aureus [2, 7]: 1 µg/mL | MIC (μg/mL) (COL) [3, 7]: 0.25 µg/mL

CCCCCCCCCC(=O)N[C@@H](CC(N)=O)C(=O)N(C)[C@@H]1C(=O)N[C@@H](C)C(=O)N[C@H](C(=O)N[C@@H](C)C(C)=O)Cc2ccc(OCCN)c(c2)-c2cc1ccc2OCCN.O=CO [Compound 266]
MIC (μg/mL) E. coli [1]: >4 µg/mL | MIC (μg/mL) S. aureus [2, 7]: 4 µg/mL | MIC (μg/mL) (COL) [3, 7]: 1.5 µg/mL
